From US20140100241A1 (priority 2007, published 2014)
Read-outs that look alike come from different tables or passages of the source.

How the values were obtained:
[1] = tested on: patients with opiate dependence; assay: Clinical detoxification of opiate-dependent patients with decreasing buprenorphine troche doses (microdose protocol)
[2] = cited from earlier work

COC12CCC3(CC1C(C)(O)C(C)(C)C)C1Cc4ccc(O)c5c4C3(CCN1CC1CC1)C2O5 [Buprenorphine, (2S)-2-[(−)-(5R,6R,7R,14S)-9α-cyclopropylmethyl-4,5-epoxy-6,14-ethanomorphinan-7-yl]-3-hydroxy-6-methoxy-3,3-dimethylbutan-2-ol]
withdrawal symptoms after dose reduction ([1]; 2.0 mg dose reduction, experienced or chronic user of narcotic type medications): significant withdrawal symptoms
time to return of withdrawal symptoms ([1]; cut-off of 2.0 mg): ≤ 24 h
treatment outcome ([1]; fractional dose of 1.5 mg after a final 3.0 mg dose): unsuccessful
patients transitioned safely and in a symptomless manner from buprenorphine to the blocker Naltrexone ([1]; increased number of sub 0.1 mg doses, treatment three or more months): ~100%
completion rate (completion means a narcotic free state) ([1]; microdose methods over an extended period, months rather than days or weeks): approximately 96%
duration of withdrawal symptoms ([1]; previous treatment regimens, doses 8.0 to 3.0 mg): three to five days
withdrawal symptoms reported by patients ([1]; serial doses of 0.25 mg): perceptible and, in some cases, intolerable withdrawal symptoms
success rate ([1]; when taken to completion of the dose reduction schedule): greater than 90%
mean half-life ([2]; in vivo): 35 to 37 h
elimination half-life (mean) ([2]; mean): 37 h
first-pass metabolism ([2]; oral administration): very high
elimination half-life ([2]; range): 20 to 73 h
mean half-life ([2]; taken sublingually): 35 to 37 h

CN1C(=O)CN=C(c2ccccc2)c2cc(Cl)ccc21 [Diazepam]
observed effect in the early phase of withdrawal ([1]; outpatients): too dis-inhibiting

O=C1CC[C@@]2(O)[C@H]3Cc4ccc(O)c5c4[C@@]2(CCN3CC2CC2)[C@H]1O5 [Naltrexone]
return of withdrawal symptoms after the end of buprenorphine treatment ([1]; Naltrexone administered at 12.5 mg): up to five days
